The nature of data set [1]: Decarboxylation of oxaloacetate to produce pyruvate was measured bythe conversion of NADH to NAD+ in the lactate dehydrogenase mediated transformation of pyruvate to lactate; expressed as Catalytic efficiency as the ratio of (kcat/KM).
The test system of data set [2] is CC(=O)NCC(=O)N1CCC[C@H]1C(=O)N[C@@H](CO)C(=O)N[C@@H](CCC(N)=O)C(=O)N1CCC[C@H]1C(=O)N[C@H](C(=O)N[C@@H](Cc1ccc(O)cc1)C(=O)N1CCC[C@H]1C(=O)NCC(=O)N[C@@H](CC(=O)O)C(=O)N[C@@H](CC(=O)O)C(=O)N[C@@H](C)C(=O)N1CCC[C@H]1C(=O)N[C@H](C(=O)N[C@@H](CCC(=O)O)C(=O)N[C@@H](CC(=O)O)C(=O)N[C@@H](CC(C)C)C(=O)N[C@@H](CCCCN)C(=O)N[C@@H](CCCN=C(N)N)C(=O)N[C@@H](Cc1ccccc1)C(=O)N[C@@H](Cc1ccc(O)cc1)C(=O)N[C@@H](CCCCN)C(=O)N[C@@H](CC(N)=O)C(=O)N[C@@H](CC(C)C)C(=O)N[C@@H](CCCCN)C(=O)N[C@@H](CCC(N)=O)C(=O)N[C@@H](Cc1ccc(O)cc1)C(=O)N[C@@H](CC(C)C)C(=O)N[C@@H](CCCCN)C(=O)N[C@H](C(=O)N[C@H](C(N)=O)C(C)C)C(C)C)C(C)C)[C@@H](C)O. As to the kind of experiment: (§1) Decarboxylation of oxaloacetate to produce pyruvate was measured bythe conversion of NADH to NAD+ in the lactate dehydrogenase mediated transformation of pyruvate to lactate at a uM.

The subject of data set [3] is CC(C)C[C@H](NC(=O)[C@H](C)NC(=O)[C@H](CCCCN)NC(=O)[C@H](CC(C)C)NC(=O)[C@H](CC(C)C)NC(=O)[C@@H](CCCCN)NC(=O)[C@H](C)NC(=O)[C@@H](N)CC(C)C)C(=O)N[C@@H](C)C(=O)N[C@@H](CCCCN)C(=O)N[C@@H](CC(C)C)C(=O)N[C@@H](CC(C)C)C(=O)N[C@@H](CCCCN)C(=O)N[C@@H](CCCCN)C(N)=O. The description is as §1.
Data set [4] addresses L-lactate dehydrogenase B chain (Sus scrofa) (UniProt P00336). As to the kind of experiment: Decarboxylation of oxaloacetate to produce pyruvate was measured by the conversion of NADH to NAD+ in the lactate dehydrogenase mediated transformation of pyruvate to lactate at a uM.
The target is the same in data set [5]. The description is as §1.
The nature of data set [6]: Catalytic efficiency is the ratio of (kcat/KM).

This is an account of results in ChEMBL document CHEMBL1134700, “Design, synthesis and characterisation of a peptide with oxaloacetate decarboxylase activity” (Bioorg Med Chem Lett, 2001).

Values joined by “and” are separate entries in the source; they are usually repeats but may differ in a detail not shown here. Identical values can stand only once.

For orientation: Km means the concentration of substrate that gives half-maximal velocity.

Chain of L-lactate dehydrogenase B chain (Sus scrofa) (P00336 whole entry): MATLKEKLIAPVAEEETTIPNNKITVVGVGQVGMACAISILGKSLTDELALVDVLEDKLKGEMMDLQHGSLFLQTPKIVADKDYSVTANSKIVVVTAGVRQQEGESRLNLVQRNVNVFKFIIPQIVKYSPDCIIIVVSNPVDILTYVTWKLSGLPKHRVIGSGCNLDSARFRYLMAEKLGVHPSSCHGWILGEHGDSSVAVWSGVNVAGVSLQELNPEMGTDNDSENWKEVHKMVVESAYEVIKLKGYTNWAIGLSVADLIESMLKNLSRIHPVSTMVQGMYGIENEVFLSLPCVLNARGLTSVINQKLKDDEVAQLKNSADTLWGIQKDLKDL
Chain of L-lactate dehydrogenase B chain (Sus scrofa), P00336 (P00336 whole entry): as above

As to `NCC(N)=O`, the k cat/Km in data set [1] was determined as 0.011 M⁻¹ s⁻¹.
“L-lactate dehydrogenase B chain (Sus scrofa), P00336”: the Km in data set [2] turned out to be 49.4 mM; in data set [3], 48 mM.
For the compound `CC(C)C[C@H](NC(=O)[C@H](C)NC(=O)[C@H](CCCCN)NC(=O)[C@H](CC(C)C)NC(=O)[C@H](CC(C)C)NC(=O)[C@@H](CCCCN)NC(=O)[C@H](C)NC(=O)[C@@H](N)CC(C)C)C(=O)N[C@@H](C)C(=O)N[C@@H](CCCCN)C(=O)N[C@@H](CC(C)C)C(=O)N[C@@H](CC(C)C)C(=O)N[C@@H](CCCCN)C(=O)N[C@@H](CCCCN)C(N)=O`, the k cat in data set [4] was 0.015 s⁻¹; in data set [5] it was 0.0075 s⁻¹. For the same compound, the k cat/Km in data set [6] is 0.153 M⁻¹ s⁻¹ and 0.071 M⁻¹ s⁻¹.
In data set [5], Ac-GPSQPTYPGDDAPVEDLKRFYKNLKQYLKVV-NH2 returned a k cat of 0.086 s⁻¹. In addition, the k cat/Km in data set [6] is 1.74 M⁻¹ s⁻¹.
As for `CCCCN`, the k cat/Km in data set [1] was determined as 0.0005 M⁻¹ s⁻¹.
